Values joined by “and” are separate entries in the source; they are usually repeats but may differ in a detail not shown here. Equal values may be shown once. Bounds are passed on as bounds.

The experiment deals with T1, Thromboxane A2 receptor (Mus musculus, UniProt P30987).
T1 sequence (P30987 whole entry): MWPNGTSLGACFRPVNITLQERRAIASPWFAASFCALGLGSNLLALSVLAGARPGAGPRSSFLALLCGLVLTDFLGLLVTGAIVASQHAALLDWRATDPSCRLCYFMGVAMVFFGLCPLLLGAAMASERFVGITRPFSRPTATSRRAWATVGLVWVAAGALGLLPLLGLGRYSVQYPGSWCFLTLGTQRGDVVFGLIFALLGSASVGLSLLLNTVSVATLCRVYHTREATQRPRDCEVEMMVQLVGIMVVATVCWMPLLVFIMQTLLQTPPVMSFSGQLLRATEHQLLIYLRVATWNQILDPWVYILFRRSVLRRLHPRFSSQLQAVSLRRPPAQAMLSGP
Consider `CCCCC(C)(C)[C@H](O)/C=C/[C@@H]1[C@@H](C/C=C\CCCC(=O)O)[C@@H](O)C[C@H]1O`, for which affinity was put at a Ki of 770 nM.

As to `CCCCC[C@@H](O)/C=C/[C@H]1[C@H](O)CC(=O)[C@@H]1CCCCCCC(=O)O`, the Ki – broadly, the dissociation constant of the complex between target and ligand, obtained from inhibition or displacement – is over 10000 nM.

In the case of `COc1cc(CC2NCCc3cc(O)c(O)cc32)cc(OC)c1OC` (centres undefined) [1-(3,4,5-Trimethoxy-benzyl)-1,2,3,4-tetrahydro-isoquinoline-6,7-diol], the inhibition constant (Ki) is over 10000 nM.

For `CCCCC[C@H](O)CC[C@H]1c2cc([nH]n2)[C@@H]1CC=CCCCC(=O)O` [9,11-AzoPGH2], the Ki came out at 1100 nM.

`CCCCCC(O)C=CC1C2CCC(C2)C1CC=CCCCC(=O)O` (centres undefined) [9,11-ethano PGH2] showed an inhibition constant Ki of 440 nM.

In turn, `CCCCC[C@H](O)/C=C/[C@H]1C2OC2C(=O)[C@@H]1C/C=C\CCCC(=O)O` (stereo partly drawn) [10alpha,11alpha-oxido PGA2] gave a Ki of over 10000 nM.

`CCCCC[C@H](O)/C=C/[C@@H]1[C@@H](/C=C\CCCC(=O)O)[C@H]2CO[C@@H]1C2` [11,9-epoxymethano PGH2] displayed a Ki of 360 nM.

Regarding `CCCCC[C@H](O)/C=C/C1[C@H](O)C[C@H](O)[C@@H]1C/C=C\CCCC(=O)O` (stereo partly drawn) [(Z)-7-[(1R,3R,5S)-3,5-Dihydroxy-2-((E)-(S)-3-hydroxy-oct-1-enyl)-cyclopentyl]-hept-5-enoic acid], the Ki was over 10000 nM.

`CCCCCC(O)CC=C1C(=O)C=CC1CC=CCCCC(=O)O` (centres undefined) [CAS_41598-07-6] gave an inhibition constant Ki of over 10000 nM.

As to `CCCCC[C@H](O)/C=C/[C@H]1O[C@H]2C[C@H](O2)[C@@H]1C/C=C\CCCC(=O)O` [CAS_57576-52-0], affinity was put at a Ki of 1300 nM.

The compound `CCCCC[C@@H](O)/C=C/[C@H]1C[C@H]2C[C@@H]([C@@H]1C/C=C\CCCC(=O)O)C2(C)C` [CAS_71111-01-8] showed a Ki of 1400 nM. This Ki and that of the compound before are within 1.5-fold of each other.

`CCCCC[C@H](O)/C=C/C1C[C@H]2C[C@H](C2)[C@@H]1C/C=C\CCCC(=O)O` (some centres undefined) [CAS_74034-56-3] gave a Ki of 1500 nM.

With `O=C(O)CCCC=CCC1C(O)CC(O)C1C=CC(O)COc1ccc(F)cc1` (centres undefined) [CAS_188200], the inhibition constant Ki was 320 nM.

Compound `CCCCC[C@H](O)/C=C/[C@H]1[C@H](O)CC(=O)[C@@H]1C/C=C\CCCC(=O)O` [DINOPROSTONE] returned an inhibition constant (Ki) of over 10000 nM.

`O=C(O)CCC/C=C/C[C@H]1C2C=CC(C2)[C@@H]1/C=C/[C@H](O)COc1ccc(F)cc1` (some centres undefined) [EP011] had a Ki of 1200 nM. In other words, the single-digit micromolar range.

In turn, `CCCCCC(C)(O)C=CC1C(O)CC(O)C1CC=CCCCC(=O)O` (centres undefined) [NSC_37255] had a Ki of over 10000 nM.

As for `O=C(O)CCCC=CCC1C2CCC(C2)C1C=NNC(=O)Nc1ccccc1` (centres undefined) [NSC_5311388], the Ki is 460 nM.

Take `CCCCC[C@H](O)/C=C/[C@@H]1[C@@H](C/C=C\CCCC(=O)O)[C@@H]2C[C@H]1OO2` [PGH2]: the Ki is 200 nM and 1600 nM.

The compound `CCCCC/C=C\C/C=C\C/C=C\C/C=C\CCCC(=O)O` [[1-14C]Arachidonic acid] had an inhibition constant (Ki) of over 10000 nM.

For the origin of these results see BindingDB's records for doi:10.1111/j.1476-5381.1983.tb10541.x (University of Edinburgh, 1983).
